Reference: patent publication US20070213400A1, “ALCOHOL-METABOLISM ENHANCING COMPOSITION AND INGESTA CONTAINING THE SAME” (Taiyokagaku Co., Ltd., priority 2004, published 2007)

Columns and labels:
[1] = Ethanol concentration in the blood after ingestion of ethanol (ADH method); format: in vivo, CDF1 male mice; conditions: mice; for Ethanol concentration in the blood, Mean: ethanol 3.0 g/kg oral, theanine 100 mg/kg
Description: (§1) Ethanol was ingested to CDF1 male mice 3.0 g/weight by kg by oral administration. Theanine was ingested to the abdominal cavity of each mouse once before ingestion of ethanol. Concentration of ethanol in the blood and concentration of lipid peroxide in the liver were measured. GSH concentration was also measured. Furthermore, alcohol dehydrogenase, aldehyde dehydrogenase and enzyme activity of […] were also measured.
The concentration of ethanol in the blood was measured by the following ADH method. 0.1 mL of blood was added to 0.8 mL of 0.33 N perchloric acid. After execution of a vortex process, a centrifugal process was carried out under the condition of 1200 g for 5 minutes. 0.1 mL of supernatant was mixed with 0.1 mL of buffer liquid containing […] of sodium phosphate/semicarbazide buffer liquid (pH8.7) and 0.48 mM of NAD. 0.02 mL of ADH (≧32 IU/mL) was further added to the mixture and incubated at 37° C. for 25 minutes. Thereafter, absorbance was measured at 340 nm. An unknown sample concentration was calculated by the comparison of ethanol concentration with known standard sample data.

[2] = test system: lipid peroxide in the liver; test: Lipid peroxide concentration in the liver after ingestion of ethanol (TBA fluorometry); format: in vivo, CDF1 male mice; conditions: mouse liver; for Lipid peroxide concentration, Mean: ethanol 3.0 g/kg oral, theanine
Description: as §1
(§2) The lipid peroxide concentration in the liver was measured in the following method (TBA fluorometry). 0.1 mL of liver sample (2% homogenate in physiological salt solution) was added with 0.5 mL of 3% SDS, 1.5 mL of 2.0 M acetic acid buffer liquid (pH3.6), 1.5 mL of 0.8% thiobarbituric acid and 0.4 mL of purified water so that a total amount was 4.0 mL. In a standard sample, 20 μL of 50 μmol/L malondialdehyde (MDA) was added instead of the above liver sample and 0.48 purified water was added. The solution was heat-treated in boiling water for 75 minutes and thereafter, cooled for 5 minutes. 1.0 mL of 0.2 N chloride and 5.0 mL of n-butanol were mixed to the cooled substance and thereafter, shaken for 30 seconds. 1200 g of substance was centrifugally processed for 15 minutes. Supernatant was sampled and fluorometry (excitation wavelength: 515 nm; and fluorescent wavelength: 553 nm) was carried out. The unknown sample was calculated using calibration curve.

[3] = test system: GSH concentration in the liver; test: GSH concentration in the liver after ingestion of ethanol; format: in vivo, CDF1 male mice; conditions: mouse liver, % of normal state
Description: as §1
(§3) The GSH concentration in the liver was measured by the following method (HiSSIN-Hilf). 5% homogenate of the liver or heart was prepared in a 0.1 M sodium phosphate-0.005 M EDTA buffer liquid (pH 8.0) using a potter type Teflon homogenizer while being iced. 0.25 mL of 25% metaphosphoric acid was added to 0.75 mL of homogenate liquid and mixed well. 10000 g of substance was centrifugally processed for 30 minutes. Thereafter, supernatant was sampled and diluted by 50 times with 0.1 M sodium phosphate-0.005 M EDTA buffer liquid (pH 8.0). To 0.20 mL of the diluted liquid was added 3.6 mL of 0.1 M sodium phosphate-0.005 M EDTA buffer liquid (pH 8.0) and 0.20 mL of 0.1% o-phthalaldehyde (OPT) -methanol liquid. The mixture was left at a room temperature for 5 minutes and thereafter, the fluorometry (excitation wavelength: 350 nm; and fluorescent wavelength: 420 nm) was carried out. The unknown sample was calculated using calibration curve.

[4] = test system: alcohol dehydrogenase; test: Liver alcohol dehydrogenase (ADH) activity after ingestion of ethanol; format: in vivo, CDF1 male mice; conditions: mouse liver, 3 hours after ingestion of ethanol
Description: as §1

[5] = test system: cytochrome P2E1 (CYP2E1); test: Liver CYP2E1 enzyme activity after ingestion of ethanol (HPLC, para-nitrophenol); format: in vivo, CDF1 male mice; conditions: mouse liver, 3 hours after ingestion of ethanol
Description: as §1

[6] = test system: aldehyde dehydrogenase; test: Liver aldehyde dehydrogenase (ALDH) activity after ingestion of ethanol; format: in vivo, CDF1 male mice; conditions: mouse liver, 3 hours after ingestion of ethanol
Description: as §1

[7] = test system: GPT; test: Chronic administration, alcoholic liver injury: GPT in the blood; format: in vivo, CDF1 male mice; conditions: mice, ethanol 1.0 or 2.0 g/kg oral twice a day, theanine 100 mg/kg abdominal cavity, ten days (FIG. 6)
Description: (§4) Ethanol was ingested to CDF1 male mice (5 weeks old) 1.0 g/kg-weight or 2.0 g/kg-weight by oral administration twice in a day. Theanine was ingested to the abdominal cavity of each mouse 100 mg/kg-weight. After ingestion of ethanol and theanine for ten days, concentrations of GOT, GPT, and γ-GTP in the blood were measured. Concentrations of lipid peroxide and GSH in the liver were measured.
(§5) The concentrations of GOT and […] in the blood were measured by using the […] C-test WAKO (WAKO Pure Chemical Industries, Ltd). The concentration of γ-GTP was measured by using the γ-GTP C-test WAKO (WAKO Pure Chemical Industries, Ltd) Concentrations of lipid peroxide and GSH in the liver were measured by the method written in Embodiment 1.
The concentration of GPT was measured by the following method. 0.02 mL of serum was added to 0.5 mL of GPT-measuring-substrate-buffer and incubated at 37° C. for 5 minutes. Thereafter, 0.5 mL of coloring reagent was added, incubated at 37° C. for 20 minutes. 2.0 mL of stop solution was added to the mixture. Thereafter absorbance was measured at 555 nm. GPT activity (Karmen unit) in the blood was calculated by the comparison of GPT activity with known standard sample data plot.

[8] = test system: GSH in the liver; test: Chronic administration, alcoholic liver injury: GSH in the liver; format: in vivo, CDF1 male mice; conditions: mice, ethanol 1.0 or 2.0 g/kg oral twice a day, theanine 100 mg/kg abdominal cavity, ten days (FIG. 7)
Description: as §3

[9] = test system: mice; format: in vivo; conditions: oral administration of theanine by 5 g/kg
Excerpt: Theanine used in the invention has a high security. […] Furthermore, theanine is known as a principal component of deliciousness of tea and used as a food additive for use as gustatory. An amount of theanine to be added is not limited under the Food Sanitation Law. Moreover, differing from conventional medical substances, theanine has no adverse side effect. Consequently, the composition of the invention can be used as a safe and effective alcohol-metabolism enhancing composition.

[10] = test system: lipid peroxide in the liver; test: Chronic administration, alcoholic liver injury: lipid peroxide in the liver; format: in vivo, CDF1 male mice; conditions: mice, ethanol 1.0 or 2.0 g/kg oral twice a day, theanine 100 mg/kg abdominal cavity, ten days
Description: as §2, with “1.0 mL of 0.2 N chloride and 5.0 mL of n-butanol were mixed to the cooled substance and thereafter, shaken for 30 seconds. 1200 g of substance was centrifugally processed for 15 minutes. Supernatant was sampled and fluorometry (excitation wavelength: 515 nm; and fluorescent wavelength: 553 nm) was carried out.” left out
as §4, with “Theanine was ingested to the abdominal cavity of each mouse 100 mg/kg-weight.” left out
as §5

CCO [Ethanol]
Ethanol concentration in the blood, Mean ([1]; time 0 h): 0 mg/mL
Ethanol concentration in the blood, Mean ([1]; time 0.5 h): 0.498 mg/mL
Ethanol concentration in the blood, Mean ([1]; time 1 h): 0.108 mg/mL
Ethanol concentration in the blood, Mean ([1]; time 3 h): 0.022 mg/mL
Lipid peroxide concentration, Mean ([2]; time 0 h): 0.617 mg/mL
Lipid peroxide concentration, Mean ([2]; time 0.5 h): 0.573 mg/mL
Lipid peroxide concentration, Mean ([2]; time 1 h): 0.565 mg/mL
Lipid peroxide concentration, Mean ([2]; time 2 h): 0.580 mg/mL
Lipid peroxide concentration, Mean ([2]; time 3 h): 1.036 mg/mL
Lipid peroxide concentration, Mean ([2]; time 5 h): 0.568 mg/mL
lipid peroxide ([2]; only ethanol ingested, peak value (3 h in Table 2)): 1.036 u mol/g protein
Lipid peroxide concentration (%) of the value in the normal state ([2]; time 0 h): 100%
Lipid peroxide concentration (%) of the value in the normal state ([2]; time 0.5 h): 93%
Lipid peroxide concentration (%) of the value in the normal state ([2]; time 1 h): 92%
Lipid peroxide concentration (%) of the value in the normal state ([2]; time 2 h): 94%
Lipid peroxide concentration (%) of the value in the normal state ([2]; time 3 h): 168%
Lipid peroxide concentration (%) of the value in the normal state ([2]; time 5 h): 92%
GSH concentration (%), Mean ([3]; time 0 h): 100.00%
GSH concentration (%), Mean ([3]; time 0.5 h): 79.84%
GSH concentration (%), Mean ([3]; time 1 h): 78.83%
GSH concentration (%), Mean ([3]; time 2 h): 81.57%
GSH concentration (%), Mean ([3]; time 3 h): 75.96%
GSH concentration (%), Mean ([3]; time 5 h): 65.50%
GSH concentration (%), Mean ([3]; time 5 h, listed as ethanol): 65.5%
ADH activity as compared with control (normal state) [4]: about 123%
ADH activity, Mean [4]: 9.13 μmol/min · mg protein
CYP2E1 activity, Mean [5]: 20.4 nmol/mg protein/min
ALDH activity as compared with control [6]: about 63.5%
ALDH activity, Mean [6]: 5.80 μmol/min · mg protein
GPT concentrations in the blood [7]: increased
GSH concentrations in the liver [8]: decreased

CCNC(=O)CC[C@H](N)C(=O)O [Theanine, theanine]
AUC0-3 hr of blood ethanol reduced by joint use of theanine as compared with only ethanol ([1]; ethanol 3.0 g/kg, theanine 100 mg/kg 30 minutes after ethanol): 76%
Mortality in acute toxicity test [9]: no mice died
GPT concentrations in the blood [7]: increase of the GPT concentrations could be reduced
lipid peroxide in the liver [10]: increase of lipid peroxide in the liver would be reduced
GSH concentrations in the liver [8]: decrease of the GSH could be reduced
